Assay results published in ChEMBL document CHEMBL3112450, “Synthesis and in vitro antitumor evaluation of primary amine substituted quinazoline linked benzimidazole” (Bioorg Med Chem Lett, 2014).

Key:
Type in all cases: functional
[1] = test system: SF-539; assay: Cytotoxicity against human SF539 cells assessed as cell growth at 10^-7 M after 48 hrs by SRB assay; details: SF-539, 48 h, read-out: Activity
[2] = test system: TK-10; assay: Cytotoxicity against human TK10 cells assessed as cell growth at 10^-8 M after 48 hrs by SRB assay; details: TK-10, 48 h, read-out: Activity
[3] = test system: OVCAR-8; assay: Cytotoxicity against human OVCAR8 cells assessed as cell growth at 10^-4 M after 48 hrs by SRB assay; details: OVCAR-8, 48 h, read-out: Activity
[4] = test system: MDA-MB-435; assay: Cytotoxicity against human MDA-MB-435 cells assessed as cell growth at 10^-4 M after 48 hrs by SRB assay; details: MDA-MB-435, 48 h, read-out: Activity
[5] = test system: KM12; assay: Cytotoxicity against human KM12 cells assessed as cell growth at 10^-4 M after 48 hrs by SRB assay; details: KM12, 48 h, read-out: Activity
[6] = test system: CAKI-1; assay: Cytotoxicity against human Caki1 cells assessed as cell growth at 10^-8 M after 48 hrs by SRB assay; details: CAKI-1, 48 h, read-out: Activity
[7] = test system: K562; assay: Cytotoxicity against human K562 cells assessed as cell growth at 10^-4 M after 48 hrs by SRB assay; details: K562, 48 h, read-out: Activity
[8] = test system: HOP-92; assay: Cytotoxicity against human HOP92 cells assessed as cell growth at 10^-8 M after 48 hrs by SRB assay; details: HOP-92, 48 h, read-out: Activity
[9] = test system: MDA-MB-468; assay: Cytotoxicity against human MDA-MB-468 cells assessed as cell growth at 10^-5 M after 48 hrs by SRB assay; details: MDA-MB-468, 48 h, read-out: Activity
[10] = test system: MDA-MB-231; assay: Cytotoxicity against human MDA-MB-231 cells assessed as cell growth at 10^-5 M after 48 hrs by SRB assay; details: MDA-MB-231, 48 h, read-out: Activity
[11] = test system: MCF7; assay: Cytotoxicity against human MCF7 cells assessed as cell growth at 10^-5 M after 48 hrs by SRB assay; details: MCF7, 48 h, read-out: Activity
[12] = Cytotoxicity against human UO31 cells assessed as cell growth at 10^-5 M after 48 hrs by SRB assay; details: UO-31, 48 h, read-out: Activity
[13] = Cytotoxicity against human NCI-ADR-RES cells assessed as cell growth at 10^-5 M after 48 hrs by SRB assay; details: read-out: Activity
[14] = Cytotoxicity against human OVCAR5 cells assessed as cell growth at 10^-5 M after 48 hrs by SRB assay; details: OVCAR-5, 48 h, read-out: Activity
[15] = test system: IGROV-1; assay: Cytotoxicity against human IGROV1 cells assessed as cell growth at 10^-5 M after 48 hrs by SRB assay; details: IGROV-1, 48 h, read-out: Activity
[16] = Cytotoxicity against human UACC257 cells assessed as cell growth at 10^-5 M after 48 hrs by SRB assay; details: UACC-257, 48 h, read-out: Activity
[17] = test system: UACC-62; assay: Cytotoxicity against human UACC62 cells assessed as cell growth at 10^-5 M after 48 hrs by SRB assay; details: UACC-62, 48 h, read-out: Activity
[18] = test system: SK-MEL-5; assay: Cytotoxicity against human SK-MEL-5 cells after 48 hrs by SRB assay; details: SK-MEL-5, 48 h
[19] = test system: M14; assay: Cytotoxicity against human M14 cells assessed as cell growth at 10^-5 M after 48 hrs by SRB assay; details: M14, 48 h, read-out: Activity
[20] = test system: MDA-MB-435; assay: Cytotoxicity against human MDA-MB-435 cells assessed as cell growth at 10^-5 M after 48 hrs by SRB assay; details: MDA-MB-435, 48 h, read-out: Activity
[21] = test system: U-251; assay: Cytotoxicity against human U251 cells assessed as cell growth at 10^-5 M after 48 hrs by SRB assay; details: U-251, 48 h, read-out: Activity
[22] = test system: SNB-19; assay: Cytotoxicity against human SNB19 cells assessed as cell growth at 10^-5 M after 48 hrs by SRB assay; details: SNB-19, 48 h, read-out: Activity
[23] = test system: SF-295; assay: Cytotoxicity against human SF295 cells assessed as cell growth at 10^-5 M after 48 hrs by SRB assay; details: SF-295, 48 h, read-out: Activity
[24] = test system: KM12; assay: Cytotoxicity against human KM12 cells assessed as cell growth at 10^-5 M after 48 hrs by SRB assay; details: KM12, 48 h, read-out: Activity
[25] = test system: HCC 2998; assay: Cytotoxicity against human HCC2998 cells assessed as cell growth at 10^-5 M after 48 hrs by SRB assay; details: HCC 2998, 48 h, read-out: Activity
[26] = test system: HCT-116; assay: Cytotoxicity against human HCT116 cells assessed as cell growth at 10^-5 M after 48 hrs by SRB assay; details: HCT-116, 48 h, read-out: Activity
[27] = test system: NCI-H522; assay: Cytotoxicity against human NCI-H522 cells assessed as cell growth at 10^-5 M after 48 hrs by SRB assay; details: NCI-H522, 48 h, read-out: Activity
[28] = test system: NCI-H460; assay: Cytotoxicity against human NCI-H460 cells assessed as cell growth at 10^-5 M after 48 hrs by SRB assay; details: NCI-H460, 48 h, read-out: Activity
[29] = test system: NCI-H226; assay: Cytotoxicity against human NCI-H226 cells assessed as cell growth at 10^-5 M after 48 hrs by SRB assay; details: NCI-H226, 48 h, read-out: Activity
[30] = test system: MOLT-4; assay: Cytotoxicity against human MOLT4 cells assessed as cell growth at 10^-5 M after 48 hrs by SRB assay; details: MOLT-4, 48 h, read-out: Activity
[31] = test system: 786-0; assay: Cytotoxicity against human 786-0 cells assessed as cell growth at 10^-6 M after 48 hrs by SRB assay; details: 786-0, 48 h, read-out: Activity
[32] = test system: SK-MEL-2; assay: Cytotoxicity against human SK-MEL-2 cells assessed as cell growth at 10^-6 M after 48 hrs by SRB assay; details: SK-MEL-2, 48 h, read-out: Activity
[33] = test system: SNB-19; assay: Cytotoxicity against human SNB19 cells assessed as cell growth at 10^-6 M after 48 hrs by SRB assay; details: SNB-19, 48 h, read-out: Activity
[34] = test system: RPMI-8226; assay: Cytotoxicity against human RPMI8226 cells assessed as cell growth at 10^-6 M after 48 hrs by SRB assay; details: RPMI-8226, 48 h, read-out: Activity
[35] = test system: MDA-MB-468; assay: Cytotoxicity against human MDA-MB-468 cells assessed as cell growth at 10^-7 M after 48 hrs by SRB assay; details: MDA-MB-468, 48 h, read-out: Activity
[36] = test system: DU-145; assay: Cytotoxicity against human DU145 cells assessed as cell growth at 10^-7 M after 48 hrs by SRB assay; details: DU-145, 48 h, read-out: Activity
[37] = Cytotoxicity against human NCI-ADR-RES cells assessed as cell growth at 10^-7 M after 48 hrs by SRB assay; details: read-out: Activity

SMILES: C=CCn1c(C)nc2cc(Nc3nc(Nc4ccc5nc(C)n(CC=C)c5c4)c4ccccc4n3)ccc21
- growth at 0.1 µM [1]: 101%
- growth at 0.01 µM [2]: 96%
- growth at 100 µM [3]: 1%
- growth at 100 µM [4]: -30%
- growth at 100 µM [5]: -77%
- growth at 0.01 µM [6]: 94%
- growth at 100 µM [7]: 2%
- growth at 0.01 µM [8]: 85%
- growth at 10 µM [9]: -85%
- growth at 10 µM [10]: -89%
- growth at 10 µM [11]: -89.3%
- growth at 10 µM [12]: -99%
- growth at 10 µM [13]: -46%
- growth at 10 µM [14]: -98%
- growth at 10 µM [15]: -93.8%
- growth at 10 µM [16]: -79.8%
- growth at 10 µM [17]: -94%
- GI50 [18]: 1590 nM
- TGI [18]: 3690 nM
- growth at 10 µM [19]: -88%
- growth at 10 µM [20]: -92%
- growth at 10 µM [21]: -90.7%
- growth at 10 µM [22]: -75%
- growth at 10 µM [23]: -100%
- growth at 10 µM [24]: -100%
- growth at 10 µM [25]: -98%
- growth at 10 µM [26]: -96.5%
- growth at 10 µM [27]: -94.8%
- growth at 10 µM [28]: -84.2%
- growth at 10 µM [29]: -47.1%
- growth at 10 µM [30]: -29%
- growth at 1 µM [31]: -78%
- growth at 1 µM [32]: 74%
- growth at 1 µM [33]: 54%
- growth at 1 µM [34]: 59%
- growth at 0.1 µM [35]: 89%
- growth at 0.1 µM [36]: 99%
- growth at 0.1 µM [37]: 100%
